# Assay results reported in the supplement of paper PMC10307832.
# Tests used:
# Experiment in all cases: relative viability (nuclei count vs DMSO), 5 days (fraction); higher = more cells survive
# [1] = compound: O=S(=O)(c1ccccc1)N(CC(F)(F)F)c1ccc(C(O)(C(F)(F)F)C(F)(F)F)cc1 + Cc1cc(Nc2cc(N3CCN(C)CC3)nc(Sc3ccc(NC(=O)C4CC4)cc3)n2)n[nH]1 [Tozasertib] (partner 0.1 µM)
# Outline: (§1)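 Nuclei were stained with Hoechst during a one-step fixation (final 0.05% Triton X-100, 1% formaldehyde, 1 ug/ml Hoechst) carried out 5 days after dosing, then counted on 4× images. The cells, lung cancer lines in 1536-well plates, had been dosed by pin tool the day after seeding with one drug alone or a fixed anchor-drug dose plus five library-drug doses (not always all listed) in √10 steps. Relative viability is the nuclei count in treated wells divided by that in vehicle wells, and each value is the median of duplicate plates.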
# [2] = compound: O=S(=O)(c1ccccc1)N(CC(F)(F)F)c1ccc(C(O)(C(F)(F)F)C(F)(F)F)cc1 + Cc1nc(Nc2ncc(C(=O)Nc3c(C)cccc3Cl)s2)cc(N2CCN(CCO)CC2)n1 [Dasatinib] (partner 0.075 µM)
# Outline: as §1
# [3] = compound: O=S(=O)(c1ccccc1)N(CC(F)(F)F)c1ccc(C(O)(C(F)(F)F)C(F)(F)F)cc1 + N=C(N)NC(=N)NCCc1ccccc1 [Phenformin] (partner 250 µM)
# Outline: as §1
# RO-3306 + Olaparib = compound: C1=CC2=C(C=CC(=C2)C=C3C(=O)NC(=NCC4=CC=CS4)S3)N=C1 [RO-3306] + O=C(c1cc(Cc2n[nH]c(=O)c3ccccc23)ccc1F)N1CCN(C(=O)C2CC2)CC1 [Olaparib] (partner 8 µM)
# Outline: as §1
# RO-3306 + OSI-027 = compound: C1=CC2=C(C=CC(=C2)C=C3C(=O)NC(=NCC4=CC=CS4)S3)N=C1 [RO-3306] + COc1cccc2cc(-c3nc([C@H]4CC[C@H](C(=O)O)CC4)n4ncnc(N)c34)[nH]c12 [OSI-027] (partner 0.5 µM)
# Outline: as §1
cell line,measurement,setting,value
UMC-11,relative viability,[1]; first compound 0.8 µM,0.215
same,relative viability,[1]; first compound 2.53 µM,0.22
same,relative viability,[1]; first compound 8 µM,0.237
same,relative viability,[2]; first compound 0.8 µM,0.561
same,relative viability,[2]; first compound 2.53 µM,0.531
same,relative viability,[2]; first compound 8 µM,0.54
same,relative viability,[3]; first compound 0.8 µM,0.315
same,relative viability,[3]; first compound 2.53 µM,0.295
same,relative viability,[3]; first compound 8 µM,0.315
same,relative viability,RO-3306 + Olaparib; first compound 0.01 µM,0.365
same,relative viability,RO-3306 + Olaparib; first compound 0.03162 µM,0.411
same,relative viability,RO-3306 + Olaparib; first compound 0.1 µM,0.351
same,relative viability,RO-3306 + Olaparib; first compound 0.3162 µM,0.385
same,relative viability,RO-3306 + Olaparib; first compound 1 µM,0.299
same,relative viability,RO-3306 + OSI-027; first compound 0.01 µM,0.496
same,relative viability,RO-3306 + OSI-027; first compound 0.03162 µM,0.384
same,relative viability,RO-3306 + OSI-027; first compound 0.1 µM,0.456
same,relative viability,RO-3306 + OSI-027; first compound 0.3162 µM,0.552
same,relative viability,RO-3306 + OSI-027; first compound 1 µM,0.453
